Measurements published in PubChem BioAssay AID248 (DTP/NCI, 2004).
Several values for one entry are separate records, joined by “and”; a condition that tells them apart may be missing. Equal entries are not always repeated. Inconclusive results and toxic doses are left out. Rule as the data show it: active = T/C of 150% or more; inactive = T/C below 125%.

System: L1210 leukemia ip in BDF1 mice, survival T/C
Assay: NCI In Vivo Anticancer Drug Screen. Data for tumor model L1210 Leukemia (intraperitoneal) in B6D2F1 (BDF1) mice
Conditions: endpoint: mean survival time, higher = longer survival
Outline: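 Read-out is survival time, reported as the treated-group measurement over the vehicle-control measurement.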

[1] = dose: 100.0 mg/kg/injection, schedule: Q01DX001 (ip), vehicle: Klucel (hydroxypropylcellulose) (HPC)
[2] = dose: 200.0 mg/kg/injection, schedule: Q01DX001 (ip), vehicle: Klucel (hydroxypropylcellulose) (HPC)
[3] = dose: 50.0 mg/kg/injection, schedule: Q01DX009 (ip), vehicle: saline
[4] = dose: 100.0 mg/kg/injection, schedule: Q01DX009 (ip), vehicle: saline
[5] = dose: 100.0 mg/kg/injection, schedule: Q04DX003 (ip), vehicle: saline
[6] = dose: 200.0 mg/kg/injection, schedule: Q01DX009 (ip), vehicle: saline
[7] = dose: 200.0 mg/kg/injection, schedule: Q04DX003 (ip), vehicle: saline
[8] = dose: 100.0 mg/kg/injection, schedule: Q04DX003 (ip), vehicle: saline with Tween-80
[9] = dose: 200.0 mg/kg/injection, schedule: Q04DX003 (ip), vehicle: saline with Tween-80
[10] = dose: 400.0 mg/kg/injection, schedule: Q04DX003 (ip), vehicle: saline with Tween-80
[11] = dose: 100.0 mg/kg/injection, schedule: Q01DX009 (ip), vehicle: Klucel (hydroxypropylcellulose) (HPC)
[12] = dose: 100.0 mg/kg/injection, schedule: Q04DX003 (ip), vehicle: Klucel (hydroxypropylcellulose) (HPC)
[13] = dose: 200.0 mg/kg/injection, schedule: Q01DX009 (ip), vehicle: Klucel (hydroxypropylcellulose) (HPC)
[14] = dose: 200.0 mg/kg/injection, schedule: Q04DX003 (ip), vehicle: Klucel (hydroxypropylcellulose) (HPC)
[15] = dose: 400.0 mg/kg/injection, schedule: Q04DX003 (ip), vehicle: Klucel (hydroxypropylcellulose) (HPC)
[16] = dose: 400.0 mg/kg/injection, schedule: Q01DX009 (ip), vehicle: Klucel (hydroxypropylcellulose) (HPC)
[17] = dose: 400.0 mg/kg/injection, schedule: Q04DX003 (ip), vehicle: saline
[18] = dose: 50.0 mg/kg/injection, schedule: Q04DX002 (ip), vehicle: Klucel (hydroxypropylcellulose) (HPC)
[19] = dose: 100.0 mg/kg/injection, schedule: Q04DX002 (ip), vehicle: Klucel (hydroxypropylcellulose) (HPC)
[20] = dose: 200.0 mg/kg/injection, schedule: Q04DX002 (ip), vehicle: Klucel (hydroxypropylcellulose) (HPC)
[21] = dose: 25.0 mg/kg/injection, schedule: Q01DX009 (ip), vehicle: saline
[22] = dose: 100.0 mg/kg/injection, schedule: Q01DX001 (ip), vehicle: saline
[23] = dose: 200.0 mg/kg/injection, schedule: Q01DX001 (ip), vehicle: saline
[24] = dose: 400.0 mg/kg/injection, schedule: Q01DX001 (ip), vehicle: saline

Measured: T/C

O=C(O)c1ccccc1C(=O)c1cccc2c(Cl)cccc12
inactive: dose: 50.0 mg/kg/injection, schedule: Q01DX001 (ip), vehicle: Klucel (hydroxypropylcellulose) (HPC) 97 % of control | [1] 92 % of control | [2] 91 % of control

c1ccc(CN2CCC(N3CCCC3)CC2)cc1
inactive: [3] 101 % of control | [4] 95 % of control | [5] 109 % of control | [6] 94 % of control | [7] 101 % of control

C1CC2C3CCC(C3)C2C1 (stereo not given)
inactive: [8] 94 % of control | [9] 90 % of control | [10] 97 % of control

O=S(=O)(Nc1c(Cl)c(Cl)c(Cl)c(Cl)c1NS(=O)(=O)c1ccccc1)c1ccccc1
inactive: [11] 101 % of control | [12] 94 % of control | [13] 92 % of control | [14] 100 % of control | [15] 95 % of control

CCCCCCCC(=O)CC(C)C
inactive: [11] 109 % of control | [12] 93 % of control | [13] 98 % of control | [14] 96 % of control | [16] 107 % of control | [15] 96 % of control

Fc1ccc(C(Cl)Cl)cc1
inactive: [4] 102 % of control | [5] 97 % of control and 86 % of control | [6] 99 % of control | [7] 101 % of control | [17] 101 % of control and 89 % of control

CC(=O)NC1CCc2ccccc21 (stereo not given)
inactive: [18] 102 % of control | [19] 105 % of control | [20] 118 % of control

CC(C)(C)OC(=O)NC(Cc1ccccc1)C(=O)NN (stereo not given)
inactive: [19] 108 % of control | [20] 97 % of control | dose: 400.0 mg/kg/injection, schedule: Q04DX002 (ip), vehicle: Klucel (hydroxypropylcellulose) (HPC) 108 % of control

CC(=O)Nc1ccc(OC(=O)Nc2ccccc2F)cc1
inactive: [11] 98 % of control | [13] 101 % of control | [16] 106 % of control

O=C(CN1CCOCC1)Nc1ccc(S(=O)(=O)c2ccc(Cl)cc2)cc1
inactive: [8] 101 % of control | [9] 101 % of control | [10] 95 % of control

CN(C)CCCN1Cc2ccccc2Cc2ccccc21
inactive: dose: 6.25 mg/kg/injection, schedule: Q01DX009 (ip), vehicle: saline 106 % of control | dose: 12.5 mg/kg/injection, schedule: Q01DX009 (ip), vehicle: saline 88 % of control | [21] 97 % of control | dose: 25.0 mg/kg/injection, schedule: Q04DX003 (ip), vehicle: saline 97 % of control | [3] 104 % of control | dose: 50.0 mg/kg/injection, schedule: Q04DX003 (ip), vehicle: saline 108 % of control | [4] 100 % of control | [5] 108 % of control

O=C1c2nc3ccccc3nc2C(=O)N1OS(=O)(=O)c1ccccc1
inactive: [11] 92 % of control | [13] 105 % of control | [16] 100 % of control

Nc1cc2ccccc2cn1
inactive: [12] 112 % of control | [14] 102 % of control | [15] 107 % of control

O=C1CC(=O)C(Br)=C1Br
inactive: dose: 1.5 mg/kg/injection, schedule: Q04DX003 (ip), vehicle: saline with Tween-80 101 % of control | dose: 3.0 mg/kg/injection, schedule: Q04DX003 (ip), vehicle: saline with Tween-80 105 % of control

COc1cc2c(cc1OC)/C(=N/N)CCC2
inactive: dose: 50.0 mg/kg/injection, schedule: Q04DX003 (ip), vehicle: Klucel (hydroxypropylcellulose) (HPC) 95 % of control

CC(=O)NN(N=O)C(C)c1ccccc1 (stereo not given)
inactive: [19] 108 % of control | [20] 105 % of control

Cc1ccc(N)c(F)c1
inactive: dose: 100.0 mg/kg/injection, schedule: Q04DX002 (sc), vehicle: olive oil, sesame oil, peanut oil 93 % of control | dose: 200.0 mg/kg/injection, schedule: Q04DX002 (sc), vehicle: olive oil, sesame oil, peanut oil 98 % of control | dose: 400.0 mg/kg/injection, schedule: Q04DX002 (sc), vehicle: olive oil, sesame oil, peanut oil 104 % of control

CN(Cc1ccccc1)c1ccc2nc(N)nc(N)c2c1
inactive: dose: 25.0 mg/kg/injection, schedule: Q04DX003 (ip), vehicle: saline with Tween-80 105 % of control | dose: 50.0 mg/kg/injection, schedule: Q04DX003 (ip), vehicle: saline with Tween-80 98 % of control | [8] 108 % of control

Cc1ccc(/C(O)=C\C(=S)SS)cc1
inactive: [1] 108 % of control | [4] 100 % of control | [12] 97 % of control | [2] 100 % of control | [6] 102 % of control | [14] 90 % of control | dose: 400.0 mg/kg/injection, schedule: Q01DX001 (ip), vehicle: Klucel (hydroxypropylcellulose) (HPC) 97 % of control | dose: 400.0 mg/kg/injection, schedule: Q01DX009 (ip), vehicle: saline 100 % of control | [15] 92 % of control

C/C=C1\CN(C(=O)C(NC(=O)C(N)C(O)C(O)COC(N)=O)C2OC(n3cc(CO)c(=O)[nH]c3=O)C(O)C2O)C1C(=O)O (stereo not given) (tested in a mixture with another compound)
inactive: [22] 95 % of control | [23] 106 % of control | [24] 105 % of control

CC(C)(CO)NCc1ccc(Cl)cc1
inactive: [22] 93 % of control | [23] 97 % of control

O=C(CCCCCCCCC(=O)Nc1ccccc1F)Nc1ccccc1F
inactive: [11] 101 % of control | [13] 102 % of control | [16] 101 % of control

Cc1ccc(S(=O)(=O)OC(c2ccccc2)c2ccccc2)cc1
inactive: dose: 25.0 mg/kg/injection, schedule: Q04DX002 (ip), vehicle: Klucel (hydroxypropylcellulose) (HPC) 97 % of control | [18] 97 % of control | [19] 93 % of control

CC1(C(Cl)(Cl)Cl)C=CC(=O)C(Cl)=C1 (stereo not given)
inactive: [11] 100 % of control | [13] 103 % of control | [16] 97 % of control

CCC(C)C(N)C(=O)O (stereo not given)
inactive: [12] 103 % of control | [14] 106 % of control | [15] 101 % of control

O=C(/C=C\c1ccccc1Cl)c1ccccc1
inactive: dose: 100.0 mg/kg/injection, schedule: Q04DX002 (ip), vehicle: gum acacia 98 % of control | dose: 200.0 mg/kg/injection, schedule: Q04DX002 (ip), vehicle: gum acacia 95 % of control | dose: 400.0 mg/kg/injection, schedule: Q04DX002 (ip), vehicle: gum acacia 113 % of control

CC(=O)OC(C)(C)C1CCC2(C)COC3(C)CC(=O)OC23C1 (stereo not given)
inactive: dose: 33.0 mg/kg/injection, schedule: Q04DX003 (ip), vehicle: saline 101 % of control | dose: 66.0 mg/kg/injection, schedule: Q04DX003 (ip), vehicle: saline 101 % of control

O=C(O)CCC(=O)NCCNC(c1ccccc1)(c1ccccc1)c1ccccc1
inactive: dose: 12.0 mg/kg/injection, schedule: Q01DX009 (ip), vehicle: saline 96 % of control | [21] 96 % of control | [3] 100 % of control | [5] 111 % of control | [7] 94 % of control | [17] 105 % of control

Nc1nc(N)c2c(n1)SCC(c1ccc(Cl)cc1)=N2
inactive: dose: 75.0 mg/kg/injection, schedule: Q01DX001 (ip), vehicle: other 101 % of control | dose: 150.0 mg/kg/injection, schedule: Q01DX001 (ip), vehicle: other 98 % of control

NC(=S)NO
inactive: dose: 50.0 mg/kg/injection, schedule: Q04DX003 (ip), vehicle: other 101 % of control | dose: 100.0 mg/kg/injection, schedule: Q04DX003 (ip), vehicle: other 107 % of control | dose: 200.0 mg/kg/injection, schedule: Q04DX003 (ip), vehicle: other 104 % of control | dose: 400.0 mg/kg/injection, schedule: Q04DX003 (ip), vehicle: other 96 % of control

O=C1CCC2OC(=O)C3CCCC1C23 (stereo not given)
inactive: [22] 103 % of control | [23] 97 % of control | [24] 101 % of control
